Series [1] deals with norepinephrine reuptake (NE) (Homo sapiens, UniProt P23975). In words: norepinephrine reuptake inhibition. It counts as biochemical. The note with it: unbalanced triple reuptake inhibitor.
The target in series [2] is serotonin reuptake (5-HT) (Homo sapiens, UniProt P31645). As to the kind of experiment: serotonin reuptake inhibition. The note with it: fraction of the potency towards NE reuptake. Format: biochemical.
Series [3] concerns the target T1, monoamine oxidase A (MAO A) (Homo sapiens, UniProt P21397).
T1 sequence (P21397 1-527): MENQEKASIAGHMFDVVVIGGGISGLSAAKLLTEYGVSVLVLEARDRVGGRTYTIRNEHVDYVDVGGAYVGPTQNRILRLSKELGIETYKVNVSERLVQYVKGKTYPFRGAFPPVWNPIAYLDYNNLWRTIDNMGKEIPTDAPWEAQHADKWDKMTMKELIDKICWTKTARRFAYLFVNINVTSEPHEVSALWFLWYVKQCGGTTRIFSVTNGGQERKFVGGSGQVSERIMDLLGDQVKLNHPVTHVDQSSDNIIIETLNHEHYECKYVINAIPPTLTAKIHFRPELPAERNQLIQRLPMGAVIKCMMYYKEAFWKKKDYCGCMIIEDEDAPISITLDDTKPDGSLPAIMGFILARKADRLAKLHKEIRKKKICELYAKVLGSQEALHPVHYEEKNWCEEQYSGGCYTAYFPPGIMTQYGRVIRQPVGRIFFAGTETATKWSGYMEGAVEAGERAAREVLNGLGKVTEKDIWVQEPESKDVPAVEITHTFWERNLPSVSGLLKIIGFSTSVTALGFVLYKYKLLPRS
As to the kind of experiment: metabolic pathway.

Series [4] has as its target dopamine reuptake (DA) (Homo sapiens, UniProt Q01959). As to the kind of experiment: dopamine reuptake inhibition. Format: biochemical. The note with it: fraction of the potency towards NE reuptake.

dopamine reuptake (DA), sequence (Q01959 whole entry): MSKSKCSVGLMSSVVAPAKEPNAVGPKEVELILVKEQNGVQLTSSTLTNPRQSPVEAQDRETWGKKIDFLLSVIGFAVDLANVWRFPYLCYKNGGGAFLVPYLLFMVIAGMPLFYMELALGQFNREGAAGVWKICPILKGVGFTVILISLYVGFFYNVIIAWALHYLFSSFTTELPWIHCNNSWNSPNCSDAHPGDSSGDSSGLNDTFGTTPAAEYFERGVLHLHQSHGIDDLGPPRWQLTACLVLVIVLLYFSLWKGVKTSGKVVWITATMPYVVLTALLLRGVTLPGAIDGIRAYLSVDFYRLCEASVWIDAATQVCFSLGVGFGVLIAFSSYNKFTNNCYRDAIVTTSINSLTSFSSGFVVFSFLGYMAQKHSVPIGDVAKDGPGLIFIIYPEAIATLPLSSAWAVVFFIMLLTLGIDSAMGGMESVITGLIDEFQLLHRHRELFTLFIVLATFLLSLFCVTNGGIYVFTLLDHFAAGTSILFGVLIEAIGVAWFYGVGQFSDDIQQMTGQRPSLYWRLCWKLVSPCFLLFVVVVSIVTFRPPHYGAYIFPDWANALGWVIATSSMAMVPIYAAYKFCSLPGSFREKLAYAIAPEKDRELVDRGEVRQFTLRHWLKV
norepinephrine reuptake (NE), sequence (P23975 whole entry): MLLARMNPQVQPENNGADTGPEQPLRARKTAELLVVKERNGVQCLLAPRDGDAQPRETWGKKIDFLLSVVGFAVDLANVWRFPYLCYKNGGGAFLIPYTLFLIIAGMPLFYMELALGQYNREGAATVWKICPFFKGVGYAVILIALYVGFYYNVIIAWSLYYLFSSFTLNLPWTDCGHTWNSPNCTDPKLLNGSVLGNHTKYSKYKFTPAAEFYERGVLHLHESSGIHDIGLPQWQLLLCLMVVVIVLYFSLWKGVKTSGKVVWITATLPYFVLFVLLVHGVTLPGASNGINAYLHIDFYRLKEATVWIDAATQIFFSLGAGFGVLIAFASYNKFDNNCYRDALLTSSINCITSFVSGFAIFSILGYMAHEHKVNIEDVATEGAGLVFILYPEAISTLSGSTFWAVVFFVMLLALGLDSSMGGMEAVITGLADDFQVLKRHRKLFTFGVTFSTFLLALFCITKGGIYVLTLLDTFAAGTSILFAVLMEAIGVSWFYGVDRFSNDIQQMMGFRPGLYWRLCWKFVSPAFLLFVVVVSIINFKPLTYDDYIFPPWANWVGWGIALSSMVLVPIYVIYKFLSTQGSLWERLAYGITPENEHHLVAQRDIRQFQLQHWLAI
serotonin reuptake (5-HT), sequence (P31645 whole entry): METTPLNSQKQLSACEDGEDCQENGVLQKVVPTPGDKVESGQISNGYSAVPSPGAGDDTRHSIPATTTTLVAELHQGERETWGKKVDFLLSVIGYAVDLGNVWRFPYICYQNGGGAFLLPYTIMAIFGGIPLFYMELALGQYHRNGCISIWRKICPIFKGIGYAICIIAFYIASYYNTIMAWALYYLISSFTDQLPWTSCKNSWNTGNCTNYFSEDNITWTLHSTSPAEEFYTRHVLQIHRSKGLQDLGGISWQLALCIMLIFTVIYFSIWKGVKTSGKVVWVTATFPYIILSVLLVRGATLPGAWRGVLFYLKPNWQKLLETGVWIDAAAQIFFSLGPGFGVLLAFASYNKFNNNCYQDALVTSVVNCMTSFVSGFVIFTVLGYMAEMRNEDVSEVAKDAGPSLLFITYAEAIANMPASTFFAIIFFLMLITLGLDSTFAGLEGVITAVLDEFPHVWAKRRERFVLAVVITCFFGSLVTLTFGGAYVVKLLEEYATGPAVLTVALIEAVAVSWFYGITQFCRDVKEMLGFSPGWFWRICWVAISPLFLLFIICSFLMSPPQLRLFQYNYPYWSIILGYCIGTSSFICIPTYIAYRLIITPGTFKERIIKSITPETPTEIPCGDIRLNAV

As to `c1ccc2cc([C@]34CNC[C@H]3C4)ccc2c1` [(1R,5S)-1-(naphthalen-2-yl)-3-azabicyclo[3.1.0]hexane], the “potency towards norepinephrine reuptake (relative rank among NE, DA, 5-HT)” value in series [1] is “most potency towards norepinephrine reuptake”. In addition, the “potency towards serotonin reuptake relative to norepinephrine reuptake” value in series [2] is given as “one-fourteenth”. Moreover, in series [3], the primary metabolising enzyme result is listed as “primarily metabolized by monoamine oxidase A (MAO A)”. Further, the “potency towards dopamine reuptake relative to norepinephrine reuptake” value in series [4] was “one-sixth”.

These data come from patent US20180008575A1, “METHODS OF TREATING BINGE EATING DISORDER” (Neurovance, Inc., priority 2016, published 2018).
